Each block holds one compound with its values, some of them ahead of it.
Legend:
[1] = pK(S0), value from Mackor et al 1958; cited from earlier work
[2] = Excited-state / phosphorescence lifetimes of candidate jump molecules; format: physicochemical; conditions: for Lifetimes (mS): triplet, prolonged excited state; for τp (excited-state lifetime, p for phosphorescence): carbon acids, obs = observed
Excerpt: During the course of scientific research, the inventor constructed kinetic equations for the 3-level system of FIG. 1. Referring again to FIG. 1, an ideal “jump molecule” will be excited from ground state energy level (S0) to first excited singlet state energy level (S1), and return to the ground state via triplet state energy level (T1). The radiationless transition and radiative decay via phosphorescence will function as a “sink” for the molecules and because of their combined long lifetime, a prolonged molecule excited state will exist. The pH change produced by this excitation will last for the life of this excited state.
For example, the phenones are considered undesirable because the lifetimes of the protonated and non-protonated forms are very different, providing a rapid excited state deactivation channel. An example of this is benzophenone, having an unprotonated lifetime of 100 milliseconds and a protonated lifetime of 62 nanoseconds.
(§1) In Table 1, characteristics of the carbon acids are described. […] In this table, “obs” means “observed” and “c” means “calculated”.

[3] = Acidity constants (pK) in ground, first excited singlet and triplet states; format: physicochemical; conditions: for pK (S0): ground state
Excerpt: The term pK is a shorthand indicating the strength of an acid (pKa) and is defined as the −log10 K in which K is the characteristic equilibrium constant K, represented by:
where [H^+] is the hydrogen ion concentration and [B] is the concentration of the conjugate base. When the amount of one of these constituents is varied, the others will adjust to keep K constant.
as §1
By utilizing visible light, the protonated form BH^+ of anthracene is disassociated into its base (B) and hydrogen ion (H^+) constituents to prompt a pH change from […]. […] The calculation in Table 2 is based on a pK(S0) value for anthracene found in Mackor. E. L., Hofstra, A., and Van Der Waals, J. H., 1958, in an article entitled “The Basicity of Aromatic Hydrocarbons”, Trans. Faraday Soc., vol. 54, 66.

[4] = Excitation wavelength and light absorbance; format: physicochemical; conditions: for Log (eps) / epsilon: 413.1 nm
Excerpt: In Table 1, characteristics of the carbon acids are described. […] In this table, “obs” means “observed” and “c” means “calculated”. Of these, the PAC, anthracene, fits well with certain well established polymers. Referring to FIG. 4, the protonated form of this molecule is confirmed. […] The peak at 424 nm is the only peak within the visible region of the spectrum which decreases with time, and is the signature of anthracene's protonated form. It is this peak that is used to activate the anthracene polymeric actuator with visible light.

[5] = cited from earlier work

Lifetimes nS ([2]; singlet excited state): 10.0 nS
Lifetimes (mS) [2]: (10.0) mS
Lifetimes (mS) ([2]; listed as anthracene): 10 mS
pK's Singlet [3]: 13.6
pK's Triplet ([3]; pK(T1)): 10.3
Log (eps) [4]: 0.04
epsilon [4]: 1
Compound: c1ccc2cc3ccccc3cc2c1 [Anthracene, anthracene]
pK's Ground [1]: 3.8

τp (excited-state lifetime, p for phosphorescence) [2]: 0.35 ms
pK (S0) [3]: 23.04
λ00 (excitation wavelength necessary to initiate a pH change) [4]: 300 nm
Compound: c1ccc2c(c1)Cc1ccccc1-2 [fluorene]

Log (eps) [4]: 4.38
epsilon [4]: 23988
absorbance peak within the visible region ([4]; zero-time spectrum, FIG. 4): 424 nm
Compound: protonated anthracene [BH+]

τp (excited-state lifetime, p for phosphorescence) [2]: obs
pK (S0) [3]: 11.4
λ00 (excitation wavelength necessary to initiate a pH change) [4]: 300 nm
Compound: N#CC1c2ccccc2-c2ccccc21 [9-cyanflourene]

τp (excited-state lifetime, p for phosphorescence) [2]: obs
pK (S0) [3]: 18.6
λ00 (excitation wavelength necessary to initiate a pH change) [4]: 305 nm
Compound: c1ccc(C2c3ccccc3-c3ccccc32)cc1 [9-phenylflourene]

Compound: O=C(c1ccccc1)c1ccccc1 [benzophenone]
protonated lifetime [2]: 62 nanoseconds
unprotonated lifetime [2]: 100 milliseconds

Compound: O=S(=O)(O)c1ccc2cc(O)ccc2c1 [2-naphthol-6-sulfonate]
excited-state pKa value ([5]; S1 state, UV laser, from measured rate constants): 1.9
ground-state pKa value [5]: 9.1
change in pKa ([5]; ground vs excited state): 7 unit

Source: patent US6776971B1, “Visible light pH change for activating polymers and other pH dependent reactants” (The United States of America as represented by the …, priority 1998, dated 2004)
